The NIST ThermoML archive (doi:10.1016/j.jct.2018.07.012)

Assay: mn = molality of the nth substance listed, in mol/kg
Conditions: for surface tension liquid-gas: Maximal bubble pressure; for mass density: 100 kPa, Liquid, Vibrating tube method

CC(=O)[O-].CCCCC[n+]1ccn(C)c1 [1-methyl-3-pentylimidazolium acetate] + O
Conditions	mass density [kg/m3]	surface tension liquid-gas [mN/m]
288.15 K, m1 = 0.0113	1000.14	73.1
288.15 K, m1 = 0.0167	1000.28	73
288.15 K, m1 = 0.0278	1000.42	72.7
288.15 K, m1 = 0.0448	1000.64	72.2
288.15 K, m1 = 0.1117	1001.58	70.7
288.15 K, m1 = 0.1681	1002.3	69.3
288.15 K, m1 = 0.2233	1002.98	68
288.15 K, m1 = 0.2831	1003.85	66.7
288.15 K, m1 = 0.3358	1004.57	65.4
288.15 K, m1 = 0.3919	1005.36	64.1
288.15 K, m1 = 0.448	1006.14	62.9
288.15 K, m1 = 0.5032	1006.89	61.9
293.15 K, m1 = 0.0113	999.1	72.4
293.15 K, m1 = 0.0167	999.21	72.3
293.15 K, m1 = 0.0278	999.36	71.9
293.15 K, m1 = 0.0448	999.54	71.4
293.15 K, m1 = 0.1117	1000.47	69.9
293.15 K, m1 = 0.1681	1001.12	68.5
293.15 K, m1 = 0.2233	1001.89	67.4
293.15 K, m1 = 0.2831	1002.69	66
293.15 K, m1 = 0.3358	1003.38	64.7
293.15 K, m1 = 0.3919	1004.16	63.5
293.15 K, m1 = 0.448	1004.92	62.2
293.15 K, m1 = 0.5032	1005.68	61.2
298.15 K, m1 = 0.0113	997.82	71.6
298.15 K, m1 = 0.0167	997.9	71.4
298.15 K, m1 = 0.0278	998.08	71.1
298.15 K, m1 = 0.0448	998.25	70.7
298.15 K, m1 = 0.1117	999.05	69.3
298.15 K, m1 = 0.1681	999.71	67.9
298.15 K, m1 = 0.2233	1000.49	66.7
298.15 K, m1 = 0.2831	1001.32	65.4
298.15 K, m1 = 0.3358	1002.01	64.1
298.15 K, m1 = 0.3919	1002.76	62.9
298.15 K, m1 = 0.448	1003.5	61.7
298.15 K, m1 = 0.5032	1004.2	60.7
303.15 K, m1 = 0.0113	996.33	70.8
303.15 K, m1 = 0.0167	996.39	70.6
303.15 K, m1 = 0.0278	996.54	70.4
303.15 K, m1 = 0.0448	996.73	69.9
303.15 K, m1 = 0.1117	997.44	68.5
303.15 K, m1 = 0.1681	998.19	67
303.15 K, m1 = 0.2233	998.96	65.9
303.15 K, m1 = 0.2831	999.76	64.6
303.15 K, m1 = 0.3358	1000.44	63.3
303.15 K, m1 = 0.3919	1001.15	62.1
303.15 K, m1 = 0.448	1001.84	60.8
303.15 K, m1 = 0.5032	1002.51	59.8
308.15 K, m1 = 0.0113	994.67	69.9
308.15 K, m1 = 0.0167	994.74	69.8
308.15 K, m1 = 0.0278	994.85	69.5
308.15 K, m1 = 0.0448	995.01	69.1
308.15 K, m1 = 0.1117	995.82	67.6
308.15 K, m1 = 0.1681	996.5	66.2
308.15 K, m1 = 0.2233	997.24	65.1
308.15 K, m1 = 0.2831	998.03	63.9
308.15 K, m1 = 0.3358	998.7	62.7
308.15 K, m1 = 0.3919	999.4	61.4
308.15 K, m1 = 0.448	1000.08	60.2
308.15 K, m1 = 0.5032	1000.73	59.2
313.15 K, m1 = 0.0113	992.81	69.1
313.15 K, m1 = 0.0167	992.88	69
313.15 K, m1 = 0.0278	992.97	68.7
313.15 K, m1 = 0.0448	993.11	68.2
313.15 K, m1 = 0.1117	993.98	66.8
313.15 K, m1 = 0.1681	994.62	65.5
313.15 K, m1 = 0.2233	995.34	64.4
313.15 K, m1 = 0.2831	996.08	63.2
313.15 K, m1 = 0.3358	996.74	61.9
313.15 K, m1 = 0.3919	997.43	60.7
313.15 K, m1 = 0.448	998.1	59.5
313.15 K, m1 = 0.5032	998.74	58.6
318.15 K, m1 = 0.0113	990.79	68.3
318.15 K, m1 = 0.0167	990.87	68.2
318.15 K, m1 = 0.0278	990.95	67.9
318.15 K, m1 = 0.0448	991.1	67.5
318.15 K, m1 = 0.1117	991.99	66.1
318.15 K, m1 = 0.1681	992.61	64.8
318.15 K, m1 = 0.2233	993.28	63.6
318.15 K, m1 = 0.2831	994.03	62.3
318.15 K, m1 = 0.3358	994.67	61.1
318.15 K, m1 = 0.3919	995.33	60
318.15 K, m1 = 0.448	995.97	58.9
318.15 K, m1 = 0.5032	996.58	57.9

CC(=O)[O-].CCCn1cc[n+](C)c1 [1-propyl-3-methylimidazolium acetate] + O
Conditions	mass density [kg/m3]	surface tension liquid-gas [mN/m]
288.15 K, m1 = 0.0113	1000.22	73.4
288.15 K, m1 = 0.0172	1000.35	73.2
288.15 K, m1 = 0.0279	1000.55	72.8
288.15 K, m1 = 0.0446	1000.78	72.5
288.15 K, m1 = 0.1119	1001.76	71
288.15 K, m1 = 0.1673	1002.56	69.8
288.15 K, m1 = 0.2244	1003.49	68.6
288.15 K, m1 = 0.2808	1004.43	67.4
288.15 K, m1 = 0.3352	1005.37	66.2
288.15 K, m1 = 0.3925	1006.31	65.1
288.15 K, m1 = 0.448	1007.25	64
288.15 K, m1 = 0.5037	1007.98	63
293.15 K, m1 = 0.0113	999.22	72.6
293.15 K, m1 = 0.0172	999.35	72.5
293.15 K, m1 = 0.0279	999.53	72.1
293.15 K, m1 = 0.0446	999.76	71.8
293.15 K, m1 = 0.1119	1000.68	70.5
293.15 K, m1 = 0.1673	1001.46	69
293.15 K, m1 = 0.2244	1002.37	67.8
293.15 K, m1 = 0.2808	1003.28	66.7
293.15 K, m1 = 0.3352	1004.16	65.5
293.15 K, m1 = 0.3925	1005.08	64.4
293.15 K, m1 = 0.448	1005.89	63.3
293.15 K, m1 = 0.5037	1006.64	62.4
298.15 K, m1 = 0.0113	997.99	71.8
298.15 K, m1 = 0.0172	998.1	71.6
298.15 K, m1 = 0.0279	998.25	71.3
298.15 K, m1 = 0.0446	998.46	70.9
298.15 K, m1 = 0.1119	999.35	69.6
298.15 K, m1 = 0.1673	1000.14	68.4
298.15 K, m1 = 0.2244	1001.01	67
298.15 K, m1 = 0.2808	1001.86	66
298.15 K, m1 = 0.3352	1002.67	64.8
298.15 K, m1 = 0.3925	1003.62	63.7
298.15 K, m1 = 0.448	1004.43	62.6
298.15 K, m1 = 0.5037	1005.19	61.6
303.15 K, m1 = 0.0113	996.54	71
303.15 K, m1 = 0.0172	996.62	70.8
303.15 K, m1 = 0.0279	996.78	70.5
303.15 K, m1 = 0.0446	996.99	70.1
303.15 K, m1 = 0.1119	997.84	68.8
303.15 K, m1 = 0.1673	998.61	67.6
303.15 K, m1 = 0.2244	999.46	66.3
303.15 K, m1 = 0.2808	1000.3	65.1
303.15 K, m1 = 0.3352	1001.12	64
303.15 K, m1 = 0.3925	1001.97	62.9
303.15 K, m1 = 0.448	1002.83	61.8
303.15 K, m1 = 0.5037	1003.47	60.9
308.15 K, m1 = 0.0113	994.86	70.2
308.15 K, m1 = 0.0172	994.92	70
308.15 K, m1 = 0.0279	995.09	69.7
308.15 K, m1 = 0.0446	995.28	69.3
308.15 K, m1 = 0.1119	996.14	68.1
308.15 K, m1 = 0.1673	996.89	66.8
308.15 K, m1 = 0.2244	997.74	65.4
308.15 K, m1 = 0.2808	998.56	64.4
308.15 K, m1 = 0.3352	999.31	63.3
308.15 K, m1 = 0.3925	1000.19	62.2
308.15 K, m1 = 0.448	1000.95	61.2
308.15 K, m1 = 0.5037	1001.66	60.2
313.15 K, m1 = 0.0113	992.97	69.3
313.15 K, m1 = 0.0172	993.03	69.1
313.15 K, m1 = 0.0279	993.19	68.8
313.15 K, m1 = 0.0446	993.36	68.5
313.15 K, m1 = 0.1119	994.21	67.1
313.15 K, m1 = 0.1673	994.99	65.9
313.15 K, m1 = 0.2244	995.82	64.7
313.15 K, m1 = 0.2808	996.66	63.6
313.15 K, m1 = 0.3352	997.38	62.4
313.15 K, m1 = 0.3925	998.21	61.4
313.15 K, m1 = 0.448	998.97	60.4
313.15 K, m1 = 0.5037	999.65	59.5
318.15 K, m1 = 0.0113	990.93	68.5
318.15 K, m1 = 0.0172	991.01	68.4
318.15 K, m1 = 0.0279	991.15	68
318.15 K, m1 = 0.0446	991.33	67.7
318.15 K, m1 = 0.1119	992.2	66.4
318.15 K, m1 = 0.1673	992.92	65.2
318.15 K, m1 = 0.2244	993.77	64.1
318.15 K, m1 = 0.2808	994.56	63
318.15 K, m1 = 0.3352	995.34	61.9
318.15 K, m1 = 0.3925	996.12	60.9
318.15 K, m1 = 0.448	996.87	59.8
318.15 K, m1 = 0.5037	997.59	58.9

O [water] + CC(=O)[O-].CCCCC[n+]1ccn(C)c1
m2 = 0
Conditions	mass density [kg/m3]	surface tension liquid-gas [mN/m]
288.15 K	–	73.5
293.15 K	–	72.8
298.15 K	–	72
303.15 K	–	71.2
308.15 K	994.06	70.4
313.15 K	–	69.6
318.15 K	–	68.7

O [water] + CC(=O)[O-].CCCn1cc[n+](C)c1
m2 = 0
Conditions	mass density [kg/m3]	surface tension liquid-gas [mN/m]
288.15 K	–	73.5
293.15 K	–	72.8
298.15 K	–	72
303.15 K	–	71.2
308.15 K	994.06	70.4
313.15 K	–	69.6
318.15 K	–	68.7
